From article PMC12168975 (Drug Design, Development and Therapy, 2025)
Structures can show the parent of a compound that is named as a salt. Where two headings read alike, the source gives them in different places.

Legend:
[1] = Pharmacokinetic drug-drug interaction study of BBR, TOFA and FIGA in rats; format: in vivo, Sprague-Dawley rats
[2] = poor solubility and permeability; cited from earlier work
[3] = cited from earlier work
[4] = Stability of simulated plasma; format: physicochemical, rat; conditions: simulated plasma samples; freeze-thaw cycles, room temperature storage and autosampler storage; found to be stable
[5] = cited from earlier work; remark: listed apart in the source
[6] = FIGA combined with berberine hydrochloride compared to FIGA alone
[7] = FIGA co-administered with itraconazole
[8] = FIGA co-administered with rifampin
[9] = TOFA combined with BBR compared to TOFA alone

Row | SMILES | effect of concomitant TOFA and FIGA on the pharmacokinetic parameters of BBR ([1]; BBR with vs without TOFA or FIGA) | Biopharmaceutics Classification System class [2] | oral bioavailability ([3]; ref 20) [%] | oral bioavailability ([3]; ref 35) | relative errors (RE %) of stability assessment [4] | decrease in CL [1, 6] [fold] | decrease in Tmax [1, 6] [fold] | increase in AUC(0-t) [1, 6] [fold] | increase in Cmax [1, 6] [fold] | increase of Cmax [5, 7] [%] | increase of bioavailability [5, 7] [%] | reduction of Cmax [5, 8] [%] | reduction of bioavailability [5, 8] [%] | decrease in AUC(0-t) [1, 9] [fold] | increase in CL [1, 9] [fold] | increase in time to peak concentration [1, 9] [fold]
1 | COc1ccc2cc3[n+](cc2c1OC)CCc1cc2c(cc1-3)OCO2 [BBR, berberine hydrochloride] | no significant differences | Class IV | 5 | lower than 5% | less than 15.0% |  |  |  |  |  |  |  |  |  |  | 
2 | O=C(Nc1nc2cccc(-c3ccc(CN4CCS(=O)(=O)CC4)cc3)n2n1)C1CC1 [FIGA, Filgotinib] |  |  |  |  | less than 15.0% | 1.64 | 2.09 | 1.67 | 2.26 | 64 | 45 | 26 | 27 |  |  | 
3 | C[C@@H]1CCN(C(=O)CC#N)C[C@@H]1N(C)c1ncnc2[nH]ccc12 [TOFA, Tofacitinib] |  |  |  |  | less than 15.0% |  |  |  |  |  |  |  |  | 1.76 | 1.63 | 2.49
